For 30 molecules, IC50 results are on record in patent US20240400555A1 (Initial Therapeutics, Inc., priority 2023, published 2024).

Broadly, the IC50 is the concentration that inhibits the measured activity by half.

The first experiment concerns MV-4-11 cells. The experiment is described as follows: Cell Viability Assay in MV-4-11 Cells. The note with it: Homo sapiens, MV4-11, 72 h. The experiment is classed as cell-based. The procedure, abridged: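 Luminescent ATP read-out (CellTiter-Glo) after 72 h compound treatment of MV-4-11 leukaemia cells (7,000 per well, IMDM plus 10% FBS). Values expressed relative to DMSO control and derived by four-parameter non-linear regression.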
The molecule `Cn1cc(-c2ccc(C(=O)N(c3nccc4sc(-c5cnn(CC(N)=O)c5)cc34)[C@@H]3CCCNC3)c(F)c2)nn1` [Example 489, N-[2-[1-(2-amino-2-oxo-ethyl)pyrazol-4-yl]thieno[3,2-c]pyridin-4-yl]-2-fluoro-4-(1-methyltriazol-4-yl)-N-[(3R)-3-piperidyl]benzamide] showed a half-maximal inhibitory concentration (IC50) above 10000 nM.

The molecule `Cc1n[nH]c(-c2ccc(C(=O)N(c3nccc4cccc(C)c34)[C@@H]3CCCNC3)c(F)c2)n1` [Example 324, (R)-2-fluoro-4-(3-methyl-1H-1,2,4-triazol-5-yl)-N-(8-methylisoquinolin-1-yl)-N-(piperidin-3-yl) benzamide] registered an IC50 of 1500 nM.

The experiment is the same for the next values; noted with them: Homo sapiens, MV4-11, 72 h, MV-4-11 cells, 72 h, Cell-Titer Glo; read-out: IC50.
Take `Cc1cccc2ccnc(N(C(=O)c3ccc(-c4cnn(C)c4)c(-c4cnn(C)c4)c3)[C@@H]3CCCNC3)c12` [Example 326, (R)-3,4-bis(1-methyl-1H-pyrazol-4-yl)-N-(8-methylisoquinolin-1-yl)-N-(piperidin-3-yl) benzamide]: the half-maximal inhibitory concentration (IC50) stood at 67 nM.

Take `Cc1nnc(-c2ccc(C(=O)N(c3nccc4c(F)ccc(C)c34)[C@@H]3CCCNC3)c(F)c2)o1` [Example 660, (R)-2-fluoro-N-(5-fluoro-8-methylisoquinolin-1-yl)-4-(5-methyl-1,3,4-oxadiazol-2-yl)-N-(piperidin-3-yl)benzamide]: the IC50 was found to be 200 nM.

With `Cn1cc(-c2ccc(C(=O)N(c3nccc4sc(Cc5ccccc5)cc34)[C@@H]3CCCNC3)c(F)c2)nn1` [Example 487, N-(2-benzylthieno[3,2-c]pyridin-4-yl)-2-fluoro-4-(1-methyltriazol-4-yl)-N-[(3R)-3-piperidyl]benzamide], the IC50 is 620 nM.

Consider `Cc1cccc2ccnc(N(C(=O)c3ccc(-c4nnn(C)c4C)cc3F)[C@@H]3CCCNC3)c12` [Example 830, (R)-4-(1,5-dimethyl-1H-1,2,3-triazol-4-yl)-2-fluoro-N-(8-methylisoquinolin-1-yl)-N-(piperidin-3-yl)benzamide], for which the IC50 was determined as 210 nM.

Regarding `Cc1cn(-c2ccc(C(=O)N(c3nccc4scc(C)c34)[C@@H]3CCCNC3)c(F)c2)nn1` [Example 690, (R)-2-fluoro-4-(4-methyl-1H-1,2,3-triazol-1-yl)-N-(3-methylthieno[3,2-c]pyridin-4-yl)-N-(piperidin-3-yl)benzamide], the half-inhibitory concentration (IC50) was 150 nM.

As to `Cc1cc(F)c(F)c2ccnc(N(C(=O)c3ccc(-c4cn(C)nn4)cc3)[C@@H]3CCCNC3)c12` [Example 862, N-(5,6-difluoro-8-methyl-1-isoquinolyl)-4-(1-methyltriazol-4-yl)-N-[(3R)-3-piperidyl]benzamide], the IC50 worked out at 220 nM.

As for `Cc1cccc2ccnc(N(C(=O)c3ccc(-c4cncc5c4OCCC5)cc3)[C@@H]3CCCNC3)c12` [Example 922, (R)-4-(3,4-dihydro-2H-pyrano[3,2-c]pyridin-8-yl)-N-(8-methylisoquinolin-1-yl)-N-(piperidin-3-yl)benzamide], the 50% inhibitory concentration (IC50) was found to be 420 nM.

As for `N#Cc1ccc(-c2cc3c(N(C(=O)c4ccc(-n5nnc6cccnc65)cc4F)[C@@H]4CCCNC4)nccc3s2)s1` [Example 425, N-[2-(5-cyano-2-thienyl)thieno[3,2-c]pyridin-4-yl]-2-fluoro-N-[(3R)-3-piperidyl]-4-(triazolo[4,5-b]pyridin-3-yl)benzamide], the IC50 was 230 nM.

As to `Cn1cc(-c2ccc(C(=O)N(c3nccc4cc(-c5cccc(O)c5)ccc34)[C@@H]3CCCNC3)c(F)c2)nn1` [Example 495, (R)-2-fluoro-N-(6-(3-hydroxyphenyl)isoquinolin-1-yl)-4-(1-methyl-1H-1,2,3-triazol-4-yl)-N-(piperidin-3-yl)benzamide], the IC50 is 660 nM.

With `Cc1cccc2ccnc(N(C(=O)c3ccc(Nc4nccc(O)n4)cc3F)[C@@H]3CCCNC3)c12` [Example 735, (R)-2-fluoro-4-((4-hydroxypyrimidin-2-yl)amino)-N-(8-methylisoquinolin-1-yl)-N-(piperidin-3-yl)benzamide], the 50% inhibitory concentration (IC50) was above 6200 nM.

As for `Nc1ccc(-c2cc3c(N(C(=O)c4ccc(-n5nnc6cccnc65)cc4F)[C@@H]4CCCNC4)nccc3s2)cn1` [Example 553, N-[2-(6-amino-3-pyridyl)thieno[3,2-c]pyridin-4-yl]-2-fluoro-N-[(3R)-3-piperidyl]-4-(triazolo[4,5-b]pyridin-3-yl)benzamide], the IC50 stood at 78 nM.

For the molecule `Cc1sc2ccnc(N(C(=O)c3ccc(-n4nnc5cccnc54)cc3F)[C@@H]3CCCNC3)c2c1C` [Example 820, (R)-4-(3H-[1,2,3]triazolo[4,5-b]pyridin-3-yl)-N-(2,3-dimethylthieno[3,2-c]pyridin-4-yl)-2-fluoro-N-(piperidin-3-yl)benzamide], the IC50 amounted to 220 nM.

As for `Cc1cccc2ccnc(N(C(=O)c3ccc(N4CCOC(C)(C)C4)cc3F)[C@@H]3CCCNC3)c12` [Example 644, 4-(2,2-dimethylmorpholin-4-yl)-2-fluoro-N-(8-methyl-1-isoquinolyl)-N-[(3R)-3-piperidyl] benzamide], the IC50 was above 6300 nM.

Take `O=C(c1ccc(-n2nnc3cccnc32)cc1F)N(c1nccc2sc(C#Cc3ccncc3)cc12)[C@@H]1CCCNC1` [Example 411, 2-fluoro-N-[(3R)-3-piperidyl]-N-[2-[2-(4-pyridyl)ethynyl]thieno[3,2-c]pyridin-4-yl]-4-(triazolo[4,5-b]pyridin-3-yl)benzamide]: the IC50 was 390 nM.

Consider `O=C(c1ccc(-n2nnc3cccnc32)cc1F)N(c1nccc2sc(-c3ccc(CO)cc3)cc12)[C@@H]1CCCNC1` [Example 599, (R)-4-(3H-[1,2,3]triazolo[4,5-b]pyridin-3-yl)-2-fluoro-N-(2-(4-(hydroxymethyl)phenyl)thieno[3,2-c]pyridin-4-yl)-N-(piperidin-3-yl)benzamide], for which the IC50 is 240 nM.

`Cc1nnc(-c2ccc(C(=O)N(c3nccc4cc(Cl)cc(C)c34)[C@@H]3CCCNC3)cn2)o1` [Example 917, N-(6-chloro-8-methyl-1-isoquinolyl)-6-(5-methyl-1,3,4-oxadiazol-2-yl)-N-[(3R)-3-piperidyl]pyridine-3-carboxamide]: the concentration for half-maximal inhibition (IC50) was 110 nM.

As to `O=C(c1ccc(-c2cccnn2)cn1)N(c1nccc2cc(Cl)ccc12)[C@@H]1CCCNC1` [Example 806, N-(6-chloro-1-isoquinolyl)-N-[(3R)-3-piperidyl]-5-pyridazin-3-yl-pyridine-2-carboxamide], the concentration for half-maximal inhibition (IC50) was 680 nM.

For `Cc1cc(F)cc2ccnc(N(C(=O)c3ccc(-c4cn(C)nn4)cn3)[C@@H]3CCCNC3)c12` [Example 785, (R)—N-(6-fluoro-8-methylisoquinolin-1-yl)-5-(1-methyl-1H-1,2,3-triazol-4-yl)-N-(piperidin-3-yl)picolinamide], the concentration for half-maximal inhibition (IC50) worked out at 230 nM.

Consider `Cc1cccc2ccnc(N(C(=O)c3ccc(Nc4nccc(C(=O)O)n4)cc3F)[C@@H]3CCCNC3)c12` [Example 401, (R)-2-((3-fluoro-4-((8-methylisoquinolin-1-yl)(piperidin-3-yl)carbamoyl)phenyl)amino)pyrimidine-4-carboxylic acid], for which the IC50 was above 10000 nM.

`Cc1cccc2ccnc(N(C(=O)c3ccc(Nc4nccc(CN5CCC(F)(F)CC5)n4)cc3)[C@@H]3CCCNC3)c12` [Example 972, (R)-4-((4-((4,4-difluoropiperidin-1-yl)methyl)pyrimidin-2-yl)amino)-N-(8-methylisoquinolin-1-yl)-N-(piperidin-3-yl)benzamide]: the IC50 came out at 213 nM.

With `CC(C)n1cc(-c2cc3c(N(C(=O)c4ccc(-n5nnc6cccnc65)cc4F)[C@@H]4CCCNC4)nccc3s2)cn1` [Example 437, (R)-4-(3H-[1,2,3]triazolo[4,5-b]pyridin-3-yl)-2-fluoro-N-(2-(1-isopropyl-1H-pyrazol-4-yl)thieno[3,2-c]pyridin-4-yl)-N-(piperidin-3-yl)benzamide], the IC50 was found to be 380 nM.

On to `C=C(C)c1cccnc1N(C(=O)c1ccc(Nc2ncccn2)cc1F)[C@@H]1CCCNC1` [Example 930, (R)-2-fluoro-N-(piperidin-3-yl)-N-(3-(prop-1-en-2-yl)pyridin-2-yl)-4-(pyrimidin-2-ylamino)benzamide], for which the 50% inhibitory concentration (IC50) was 400 nM.

In the case of `NC(=O)c1ccc(-c2cc3c(N(C(=O)c4ccc(-n5nnc6cccnc65)cc4F)[C@@H]4CCCNC4)nccc3s2)cc1C(F)(F)F` [Example 573, 4-[4-[[2-fluoro-4-(triazolo [4,5-b]pyridin-3-yl)benzoyl]-[(3R)-3-piperidyl]amino]thieno [3,2-c]pyridin-2-yl]-2-(trifluoromethyl) benzamide], the half-inhibitory concentration (IC50) is 230 nM.

Regarding `O=C(c1ccc(Nc2ncccn2)cc1F)N(c1nccc2ccccc12)[C@@H]1CCCNC1` [Example 927, (R)-2-fluoro-N-(isoquinolin-1-yl)-N-(piperidin-3-yl)-4-(pyrimidin-2-ylamino)benzamide], the IC50 came out at 200 nM.

For the molecule `Cc1cccc2ccnc(N(C(=O)c3ccc(-c4nnc(C5CC5)s4)cc3F)[C@@H]3CCCNC3)c12` [Example 836, (R)-4-(5-cyclopropyl-1,3,4-thiadiazol-2-yl)-2-fluoro-N-(8-methylisoquinolin-1-yl)-N-(piperidin-3-yl)benzamide], the IC50 is 89 nM.

As for `O=C(c1ccc(Nc2ncccn2)cc1F)N(c1nccc2cc(Cl)ccc12)[C@@H]1CCCNC1` [Example 794, (R)—N-(6-chloroisoquinolin-1-yl)-2-fluoro-N-(piperidin-3-yl)-4-(pyrimidin-2-ylamino)benzamide], the IC50 amounted to 1300 nM.

On to `CCc1nnc(-c2ccc(C(=O)N(c3nccc4cc(F)cc(C)c34)[C@@H]3CCCNC3)c(F)c2)s1` [Example 832, (R)-4-(5-ethyl-1,3,4-thiadiazol-2-yl)-2-fluoro-N-(6-fluoro-8-methylisoquinolin-1-yl)-N-(piperidin-3-yl)benzamide], for which the 50% inhibitory concentration (IC50) turned out to be 120 nM.

For `Cc1cc(-n2nnc3cccnc32)ccc1C(=O)N(c1nccc2cccc(C)c12)[C@@H]1CCCNC1` [Example 306, (R)-4-(3H-[1,2,3]triazolo[4,5-b]pyridin-3-yl)-2-methyl-N-(8-methylisoquinolin-1-yl)-N-(piperidin-3-yl)benzamide], the half-maximal inhibitory concentration (IC50) amounted to 58 nM.
